Laboratory results from the NIST ThermoML archive (doi:10.1016/j.jct.2012.06.012).

Assay: xn = mol fraction of the nth substance listed
Conditions: Liquid, Vibrating tube method

CCCCCCCCCC [decane] + CCO
Conditions	mass density [kg/m3]
342.81 K, 1000 kPa, x2 = 0.0937	691.26
342.81 K, 1000 kPa, x2 = 0.1011	691.32
342.81 K, 1000 kPa, x2 = 0.4963	698.84
342.81 K, 2000 kPa, x2 = 0.0937	692.32
342.81 K, 2000 kPa, x2 = 0.1011	692.38
342.81 K, 2000 kPa, x2 = 0.4963	699.92
342.81 K, 3000 kPa, x2 = 0.0937	693.37
342.81 K, 3000 kPa, x2 = 0.1011	693.43
342.81 K, 3000 kPa, x2 = 0.4963	700.98
342.81 K, 4000 kPa, x2 = 0.0937	694.4
342.81 K, 4000 kPa, x2 = 0.1011	694.46
342.81 K, 4000 kPa, x2 = 0.4963	702.03
342.81 K, 5000 kPa, x2 = 0.0937	695.42
342.81 K, 5000 kPa, x2 = 0.1011	695.48
342.81 K, 5000 kPa, x2 = 0.4963	703.09
342.81 K, 6000 kPa, x2 = 0.0937	696.42
342.81 K, 6000 kPa, x2 = 0.1011	696.48
342.81 K, 6000 kPa, x2 = 0.4963	704.13
342.81 K, 7000 kPa, x2 = 0.0937	697.41
342.81 K, 7000 kPa, x2 = 0.1011	697.47
342.81 K, 7000 kPa, x2 = 0.4963	705.18
342.81 K, 8000 kPa, x2 = 0.0937	698.4
342.81 K, 8000 kPa, x2 = 0.1011	698.46
342.81 K, 8000 kPa, x2 = 0.4963	706.22
342.81 K, 9000 kPa, x2 = 0.0937	699.37
342.81 K, 9000 kPa, x2 = 0.1011	699.44
342.81 K, 9000 kPa, x2 = 0.4963	707.25
342.81 K, 10000 kPa, x2 = 0.0937	700.35
342.81 K, 10000 kPa, x2 = 0.1011	700.42
342.81 K, 10000 kPa, x2 = 0.4963	708.27
342.81 K, 11000 kPa, x2 = 0.0937	701.32
342.81 K, 11000 kPa, x2 = 0.1011	701.38
342.81 K, 11000 kPa, x2 = 0.4963	709.28
342.81 K, 12000 kPa, x2 = 0.0937	702.28
342.81 K, 12000 kPa, x2 = 0.1011	702.33
342.81 K, 12000 kPa, x2 = 0.4963	710.29
342.81 K, 13000 kPa, x2 = 0.0937	703.21
342.81 K, 13000 kPa, x2 = 0.1011	703.27
342.81 K, 13000 kPa, x2 = 0.4963	711.26
342.81 K, 14000 kPa, x2 = 0.0937	704.14
342.81 K, 14000 kPa, x2 = 0.1011	704.2
342.81 K, 14000 kPa, x2 = 0.4963	712.23
342.81 K, 15000 kPa, x2 = 0.0937	705.06
342.81 K, 15000 kPa, x2 = 0.1011	705.12
342.81 K, 15000 kPa, x2 = 0.4963	713.19
342.81 K, 16000 kPa, x2 = 0.0937	705.95
342.81 K, 16000 kPa, x2 = 0.1011	706.02
342.81 K, 16000 kPa, x2 = 0.4963	714.13
342.81 K, 17000 kPa, x2 = 0.0937	706.83
342.81 K, 17000 kPa, x2 = 0.1011	706.9
342.81 K, 17000 kPa, x2 = 0.4963	715.07
342.81 K, 18000 kPa, x2 = 0.0937	707.7
342.81 K, 18000 kPa, x2 = 0.1011	707.77
342.81 K, 18000 kPa, x2 = 0.4963	715.97
342.81 K, 19000 kPa, x2 = 0.0937	708.56
342.81 K, 19000 kPa, x2 = 0.1011	708.63
342.81 K, 19000 kPa, x2 = 0.4963	716.86
342.81 K, 20000 kPa, x2 = 0.0937	709.39
342.81 K, 20000 kPa, x2 = 0.1011	709.45
342.81 K, 20000 kPa, x2 = 0.4963	717.73
342.86 K, 1000 kPa, x2 = 0.7526	711.77
342.86 K, 1000 kPa, x2 = 0.9014	726.79
342.86 K, 2000 kPa, x2 = 0.7526	712.88
342.86 K, 2000 kPa, x2 = 0.9014	727.93
342.86 K, 3000 kPa, x2 = 0.7526	713.97
342.86 K, 3000 kPa, x2 = 0.9014	729.05
342.86 K, 4000 kPa, x2 = 0.7526	715.06
342.86 K, 4000 kPa, x2 = 0.9014	730.15
342.86 K, 5000 kPa, x2 = 0.7526	716.15
342.86 K, 5000 kPa, x2 = 0.9014	731.27
342.86 K, 6000 kPa, x2 = 0.7526	717.23
342.86 K, 6000 kPa, x2 = 0.9014	732.36
342.86 K, 7000 kPa, x2 = 0.7526	718.31
342.86 K, 7000 kPa, x2 = 0.9014	733.45
342.86 K, 8000 kPa, x2 = 0.7526	719.38
342.86 K, 8000 kPa, x2 = 0.9014	734.54
342.86 K, 9000 kPa, x2 = 0.7526	720.44
342.86 K, 9000 kPa, x2 = 0.9014	735.62
342.86 K, 10000 kPa, x2 = 0.7526	721.49
342.86 K, 10000 kPa, x2 = 0.9014	736.69
342.86 K, 11000 kPa, x2 = 0.7526	722.54
342.86 K, 11000 kPa, x2 = 0.9014	737.75
342.86 K, 12000 kPa, x2 = 0.7526	723.57
342.86 K, 12000 kPa, x2 = 0.9014	738.79
342.86 K, 13000 kPa, x2 = 0.7526	724.58
342.86 K, 13000 kPa, x2 = 0.9014	739.82
342.86 K, 14000 kPa, x2 = 0.7526	725.59
342.86 K, 14000 kPa, x2 = 0.9014	740.84
342.86 K, 15000 kPa, x2 = 0.7526	726.57
342.86 K, 15000 kPa, x2 = 0.9014	741.84
342.86 K, 16000 kPa, x2 = 0.7526	727.54
342.86 K, 16000 kPa, x2 = 0.9014	742.82
342.86 K, 17000 kPa, x2 = 0.7526	728.5
342.86 K, 17000 kPa, x2 = 0.9014	743.79
342.86 K, 18000 kPa, x2 = 0.7526	729.43
342.86 K, 18000 kPa, x2 = 0.9014	744.74
342.86 K, 19000 kPa, x2 = 0.7526	730.35
342.86 K, 19000 kPa, x2 = 0.9014	745.67
342.86 K, 20000 kPa, x2 = 0.7526	731.26
342.86 K, 20000 kPa, x2 = 0.9014	746.59
342.93 K, 1000 kPa, x2 = 0.2507	693.16
342.93 K, 2000 kPa, x2 = 0.2507	694.23
342.93 K, 3000 kPa, x2 = 0.2507	695.28
342.93 K, 4000 kPa, x2 = 0.2507	696.32
342.93 K, 5000 kPa, x2 = 0.2507	697.34
342.93 K, 6000 kPa, x2 = 0.2507	698.35
342.93 K, 7000 kPa, x2 = 0.2507	699.37
342.93 K, 8000 kPa, x2 = 0.2507	700.38
342.93 K, 9000 kPa, x2 = 0.2507	701.37
342.93 K, 10000 kPa, x2 = 0.2507	702.36
342.93 K, 11000 kPa, x2 = 0.2507	703.34
342.93 K, 12000 kPa, x2 = 0.2507	704.32
342.93 K, 13000 kPa, x2 = 0.2507	705.28
342.93 K, 14000 kPa, x2 = 0.2507	706.23
342.93 K, 15000 kPa, x2 = 0.2507	707.16
342.93 K, 16000 kPa, x2 = 0.2507	708.07
342.93 K, 17000 kPa, x2 = 0.2507	708.97
342.93 K, 18000 kPa, x2 = 0.2507	709.85
342.93 K, 19000 kPa, x2 = 0.2507	710.72
342.93 K, 20000 kPa, x2 = 0.2507	711.57
352.68 K, 1000 kPa, x2 = 0.9014	717.22
352.68 K, 2000 kPa, x2 = 0.9014	718.43
352.68 K, 3000 kPa, x2 = 0.9014	719.64
352.68 K, 4000 kPa, x2 = 0.9014	720.84
352.68 K, 5000 kPa, x2 = 0.9014	722.04
352.68 K, 6000 kPa, x2 = 0.9014	723.23
352.68 K, 7000 kPa, x2 = 0.9014	724.41
352.68 K, 8000 kPa, x2 = 0.9014	725.57
352.68 K, 9000 kPa, x2 = 0.9014	726.72
352.68 K, 10000 kPa, x2 = 0.9014	727.86
352.68 K, 11000 kPa, x2 = 0.9014	728.99
352.68 K, 12000 kPa, x2 = 0.9014	730.09
352.68 K, 13000 kPa, x2 = 0.9014	731.17
352.68 K, 14000 kPa, x2 = 0.9014	732.26
352.68 K, 15000 kPa, x2 = 0.9014	733.32
352.68 K, 16000 kPa, x2 = 0.9014	734.36
352.68 K, 17000 kPa, x2 = 0.9014	735.39
352.68 K, 18000 kPa, x2 = 0.9014	736.4
352.68 K, 19000 kPa, x2 = 0.9014	737.39
352.68 K, 20000 kPa, x2 = 0.9014	738.36
352.69 K, 1000 kPa, x2 = 0.0937	683.22
352.69 K, 1000 kPa, x2 = 0.4963	689.92
352.69 K, 2000 kPa, x2 = 0.0937	684.34
352.69 K, 2000 kPa, x2 = 0.4963	691.07
352.69 K, 3000 kPa, x2 = 0.0937	685.44
352.69 K, 3000 kPa, x2 = 0.4963	692.22
352.69 K, 4000 kPa, x2 = 0.0937	686.53
352.69 K, 4000 kPa, x2 = 0.4963	693.37
352.69 K, 5000 kPa, x2 = 0.0937	687.61
352.69 K, 5000 kPa, x2 = 0.4963	694.5
352.69 K, 6000 kPa, x2 = 0.0937	688.68
352.69 K, 6000 kPa, x2 = 0.4963	695.63
352.69 K, 7000 kPa, x2 = 0.0937	689.74
352.69 K, 7000 kPa, x2 = 0.4963	696.75
352.69 K, 8000 kPa, x2 = 0.0937	690.8
352.69 K, 8000 kPa, x2 = 0.4963	697.86
352.69 K, 9000 kPa, x2 = 0.0937	691.83
352.69 K, 9000 kPa, x2 = 0.4963	698.96
352.69 K, 10000 kPa, x2 = 0.0937	692.86
352.69 K, 10000 kPa, x2 = 0.4963	700.06
352.69 K, 11000 kPa, x2 = 0.0937	693.89
352.69 K, 11000 kPa, x2 = 0.4963	701.13
352.69 K, 12000 kPa, x2 = 0.0937	694.89
352.69 K, 12000 kPa, x2 = 0.4963	702.2
352.69 K, 13000 kPa, x2 = 0.0937	695.89
352.69 K, 13000 kPa, x2 = 0.4963	703.25
352.69 K, 14000 kPa, x2 = 0.0937	696.87
352.69 K, 14000 kPa, x2 = 0.4963	704.28
352.69 K, 15000 kPa, x2 = 0.0937	697.83
352.69 K, 15000 kPa, x2 = 0.4963	705.29
352.69 K, 16000 kPa, x2 = 0.0937	698.77
352.69 K, 16000 kPa, x2 = 0.4963	706.29
352.69 K, 17000 kPa, x2 = 0.0937	699.71
352.69 K, 17000 kPa, x2 = 0.4963	707.26
352.69 K, 18000 kPa, x2 = 0.0937	700.63
352.69 K, 18000 kPa, x2 = 0.4963	708.23
352.69 K, 19000 kPa, x2 = 0.0937	701.52
352.69 K, 19000 kPa, x2 = 0.4963	709.17
352.69 K, 20000 kPa, x2 = 0.0937	702.39
352.69 K, 20000 kPa, x2 = 0.4963	710.11
